Measured values reported in patent US9968619B2, “Method of treating triple-negative breast cancer using thienotriazolodiazepine compounds” (ONCOETHIX GMBH, priority 2014, dated 2018).

Experiments:
[1] = test system: Akt phosphorylation on T308; conditions: cited from earlier work
[2] = test system: Akt phosphorylation on S473; conditions: cited from earlier work
p110γ (PI3Kγ) = p110γ (PI3Kγ) (Homo sapiens, UniProt P48736); conditions: cited from earlier work
p110β (PI3Kβ) = p110β (PI3Kβ) (Homo sapiens, UniProt P42338); conditions: cited from earlier work
Chain of p110β (PI3Kβ) (P42338 whole entry, species assumed): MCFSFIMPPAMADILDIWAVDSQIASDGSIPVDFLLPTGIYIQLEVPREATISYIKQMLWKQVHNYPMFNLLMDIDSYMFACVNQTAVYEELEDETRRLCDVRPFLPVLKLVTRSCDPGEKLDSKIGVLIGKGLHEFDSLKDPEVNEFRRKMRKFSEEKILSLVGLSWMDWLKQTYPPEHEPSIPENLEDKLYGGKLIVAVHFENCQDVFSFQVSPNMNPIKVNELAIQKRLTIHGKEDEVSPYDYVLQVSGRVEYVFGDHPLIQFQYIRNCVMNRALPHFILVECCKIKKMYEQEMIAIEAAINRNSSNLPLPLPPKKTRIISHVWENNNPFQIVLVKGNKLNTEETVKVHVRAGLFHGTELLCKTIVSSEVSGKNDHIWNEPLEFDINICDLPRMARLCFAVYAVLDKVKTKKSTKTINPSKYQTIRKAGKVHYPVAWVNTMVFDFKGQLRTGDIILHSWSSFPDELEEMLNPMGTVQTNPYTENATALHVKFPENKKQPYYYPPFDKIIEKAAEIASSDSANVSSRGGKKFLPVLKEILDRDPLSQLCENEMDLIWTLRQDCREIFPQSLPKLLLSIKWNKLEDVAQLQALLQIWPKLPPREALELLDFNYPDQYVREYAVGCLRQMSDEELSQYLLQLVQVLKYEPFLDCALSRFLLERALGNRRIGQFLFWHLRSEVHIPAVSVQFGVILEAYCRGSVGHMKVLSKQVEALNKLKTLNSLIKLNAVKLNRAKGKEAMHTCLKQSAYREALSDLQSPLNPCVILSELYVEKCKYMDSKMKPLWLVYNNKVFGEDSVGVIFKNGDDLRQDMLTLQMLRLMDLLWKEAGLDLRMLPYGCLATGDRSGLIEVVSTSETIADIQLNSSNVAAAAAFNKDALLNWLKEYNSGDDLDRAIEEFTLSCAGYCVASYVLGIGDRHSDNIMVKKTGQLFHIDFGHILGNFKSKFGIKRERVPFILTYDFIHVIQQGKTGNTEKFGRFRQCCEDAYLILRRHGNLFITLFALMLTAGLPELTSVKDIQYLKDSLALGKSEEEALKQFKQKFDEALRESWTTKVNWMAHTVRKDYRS
Chain of p110β (PI3Kβ) (P27986 whole entry partner, species assumed): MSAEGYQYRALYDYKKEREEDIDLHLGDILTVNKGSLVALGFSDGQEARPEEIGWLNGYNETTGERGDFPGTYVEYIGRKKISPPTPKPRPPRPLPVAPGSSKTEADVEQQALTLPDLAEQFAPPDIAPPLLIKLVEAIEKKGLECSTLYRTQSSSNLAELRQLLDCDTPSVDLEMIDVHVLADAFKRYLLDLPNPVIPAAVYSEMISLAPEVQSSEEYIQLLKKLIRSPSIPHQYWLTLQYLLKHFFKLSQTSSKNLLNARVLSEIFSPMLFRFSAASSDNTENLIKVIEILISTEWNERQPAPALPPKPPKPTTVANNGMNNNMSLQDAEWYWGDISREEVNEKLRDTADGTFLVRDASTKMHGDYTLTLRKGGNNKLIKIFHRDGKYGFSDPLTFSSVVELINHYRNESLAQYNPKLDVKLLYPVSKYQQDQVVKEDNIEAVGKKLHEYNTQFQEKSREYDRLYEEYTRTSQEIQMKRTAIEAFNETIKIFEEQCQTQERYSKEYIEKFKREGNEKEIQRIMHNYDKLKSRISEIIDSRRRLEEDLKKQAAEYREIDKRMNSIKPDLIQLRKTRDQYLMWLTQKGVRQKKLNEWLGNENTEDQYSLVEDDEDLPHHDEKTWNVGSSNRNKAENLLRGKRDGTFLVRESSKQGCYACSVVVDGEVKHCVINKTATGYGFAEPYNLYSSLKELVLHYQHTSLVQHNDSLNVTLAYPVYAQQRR

mTOR = mTOR (Homo sapiens, UniProt P42345); conditions: cited from earlier work
PI3K/mTOR = conditions: cited from earlier work
[3] = test system: MDA-MB-231 nude mice-derived xenografts; experiment: MDA-MB-231 xenografts in nude mice; format: in vivo; conditions: Compound (1-1) 50 mg/kg BID po; everolimus 2 mg/kg 3 time a week ip; 4 weeks treatment
Experimental: In vivo assays were performed in 8-week-old female MDA-MB-231 nude mice-derived xenografts. 10×10^6 cells were injected, when tumor volume reached 100 mm^3, mice were randomized to 4 groups (n=9): 1) vehicle; 2) 50 mg/kg Compound (1-1) (BID, po); 3) 2 mg/kg of everolimus (3 time a week, ip); 4) combination Compound (1-1) and everolimus; 4 weeks treatment.
Symbols with • indicate significant differences between treatment vs. vehicle-treated mice (p<0.05). * indicates a significant difference in the tumor mass between the combination treated animals and the two single agent groups (*p<0.05, **p<0.01 and ***p<0.001). Results represent the mean±SEM (during the treatment period, n=9). Variation of animal body weight during treatment is illustrated in FIG. 18B. […] The T/C ratio was 39% after 10 days of combination treatment, with an optimal value of 21% on day 23. Compound (1-1) can be used for the treatment of TNBC, either alone or in combination with mTOR inhibitors.

FKBP12 = FKBP12 (Homo sapiens, UniProt P62942); conditions: cited from earlier work
Chain of FKBP12 (P62942 whole entry, species assumed): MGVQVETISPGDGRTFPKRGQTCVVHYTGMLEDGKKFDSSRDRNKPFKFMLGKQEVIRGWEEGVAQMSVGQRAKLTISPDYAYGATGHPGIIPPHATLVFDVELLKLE

MDA-MB-231 = conditions: cited from earlier work
HCC1937 = conditions: cited from earlier work

Chain of p110γ (PI3Kγ) (P48736 whole entry, species assumed): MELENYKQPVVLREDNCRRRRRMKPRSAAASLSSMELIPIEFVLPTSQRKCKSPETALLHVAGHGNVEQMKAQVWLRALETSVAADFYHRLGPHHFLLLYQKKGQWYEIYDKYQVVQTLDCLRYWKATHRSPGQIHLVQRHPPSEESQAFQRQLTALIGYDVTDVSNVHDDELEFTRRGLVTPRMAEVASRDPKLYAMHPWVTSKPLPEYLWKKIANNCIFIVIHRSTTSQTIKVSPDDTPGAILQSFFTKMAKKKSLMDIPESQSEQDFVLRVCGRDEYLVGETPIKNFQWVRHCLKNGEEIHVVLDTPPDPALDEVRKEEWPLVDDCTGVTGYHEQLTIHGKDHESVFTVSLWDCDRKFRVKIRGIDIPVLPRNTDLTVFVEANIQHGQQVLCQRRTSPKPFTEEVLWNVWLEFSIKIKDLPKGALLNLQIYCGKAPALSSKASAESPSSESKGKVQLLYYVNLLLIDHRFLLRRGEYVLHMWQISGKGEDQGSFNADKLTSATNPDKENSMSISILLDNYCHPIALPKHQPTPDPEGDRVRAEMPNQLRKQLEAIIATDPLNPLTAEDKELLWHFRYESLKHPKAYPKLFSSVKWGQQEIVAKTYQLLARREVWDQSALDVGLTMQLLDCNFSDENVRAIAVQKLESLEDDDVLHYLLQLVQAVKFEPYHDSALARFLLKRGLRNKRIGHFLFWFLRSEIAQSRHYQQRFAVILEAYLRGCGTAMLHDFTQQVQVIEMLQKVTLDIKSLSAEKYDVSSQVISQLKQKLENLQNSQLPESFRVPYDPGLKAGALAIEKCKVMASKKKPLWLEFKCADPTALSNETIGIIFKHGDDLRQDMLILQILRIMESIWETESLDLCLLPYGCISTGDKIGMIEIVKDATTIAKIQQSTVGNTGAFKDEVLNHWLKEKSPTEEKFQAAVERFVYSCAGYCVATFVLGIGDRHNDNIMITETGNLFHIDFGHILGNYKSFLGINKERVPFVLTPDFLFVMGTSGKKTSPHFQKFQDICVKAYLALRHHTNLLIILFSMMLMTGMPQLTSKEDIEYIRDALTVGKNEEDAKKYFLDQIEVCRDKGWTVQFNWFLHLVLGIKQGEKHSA

Q: Which IC50 [1] does the source give for `COc1ccc(-c2cc3c(C)nc(N)nc3n([C@H]3CC[C@H](OCCO)CC3)c2=O)cn1` [PF-04691502] here?
A: 7.5 nM

Q: And the IC50 [2]?
A: 3.8 nM

Q: Which Ki (p110γ (PI3Kγ)) does the source give for GSK2126458 here?
A: 0.024 nM

Q: What about the Ki (p110β (PI3Kβ)) of the same molecule?
A: 0.13 nM

Q: For `COc1cc(Nc2nc3ccccc3nc2NS(=O)(=O)c2ccc(NC(=O)c3ccc(C)c(OC)c3)cc2)cc(OC)c1` [XL765], which IC50 (mTOR) is on record?
A: 157 nM

Q: With `COc1ccc(-c2ccc3ncc4c(c3c2)n(-c2ccc(N3CCNCC3)c(C(F)(F)F)c2)c(=O)n4C)cn1` [NVP-BGT226] as the molecule, how does the IC50 (PI3K/mTOR) read?
A: 1 nM

Q: For `CO[C@H]1C[C@@H]2CC[C@@H](C)[C@@](O)(O2)C(=O)C(=O)N2CCCC[C@H]2C(=O)O[C@H]([C@H](C)C[C@@H]2CC[C@@H](OCCO)[C@H](OC)C2)CC(=O)[C@H](C)/C=C(\C)[C@@H](O)[C@@H](OC)C(=O)[C@H](C)C[C@H](C)/C=C/C=C/C=C/1C` [Everolimus, reference compound], which “tumor mass with respect to vehicle-treated mice” value [3] is on record?
A: not active

Q: And the IC50 (FKBP12)?
A: 1.6 to 2.4 nM

Q: With `CO[C@H]1CC2CC[C@@H](C)[C@@](O)(O2)C(=O)C(=O)N2CCCC[C@H]2C(=O)O[C@H]([C@H](C)C[C@@H]2CCC(OP(C)(C)=O)[C@H](OC)C2)CC(=O)[C@H](C)/C=C(\C)[C@@H](O)[C@@H](OC)C(=O)[C@H](C)C[C@H](C)/C=C/C=C/C=C/1C` (some centres unmarked) [Deforolimus, 42-(Dimethylphosphinate) rapamycin] as the molecule, how does the IC50 (mTOR) read?
A: 0.2 nM

Q: Which results are given for `CC(=O)O[C@@]12CO[C@@H]1C[C@H](O)[C@@]1(C)C(=O)[C@H](O)C3=C(C)[C@@H](OC(=O)[C@H](O)[C@@H](NC(=O)OC(C)(C)C)c4ccccc4)C[C@@](O)([C@@H](OC(=O)c4ccccc4)[C@H]21)C3(C)C` [Docetaxel]?
A: IC50 (MDA-MB-231): 3 nM; IC50 (HCC1937): 7.2 nM
